For orientation: IC50 means the concentration needed to halve the response being measured.

Experimental findings from patent publication US10662189B2, “PDE4 inhibitor” (SHIJIAZHUANG SAGACITY NEW DRUG DEVELOPMENT CO., LTD., priority 2016, dated 2020) are described below.

In assay [1] the test system is collagen-induced arthritis in mice. Briefly: In vivo CIA model (collagen-induced mouse arthritis). More on the design: species or system DBA/1 mice. The settings on record: for total pathological score (two hind limbs, HE staining): Mean±SEM. From the text:
The collagen-induced mouse arthritis model is an animal model for evaluating the therapeutic effect of drug treatment for psoriatic arthritis, of which pathogenesis and symptoms are obviously related to psoriatic arthritis. The model activated the reactivity of B cells and T cells to collagen by the injection of type II collagen. The activated B cells and T cells were attracted to the joints to cause the inflammation, thereby triggering a series of symptoms related to human psoriatic arthritis, such as redness and swelling of the joints, articular cartilage, joint capsule damage and other symptoms. Collagen-induced mouse arthritis is often used to evaluate the therapeutic effect during preclinical evaluation of candidate compounds for the medication for treating psoriatic arthritis.
The purpose of the experiment was to examine the therapeutic effect of the compound WX063 of embodiment 63 on collagen-induced arthritis in mice, thereby providing the preclinical pharmacodynamics information for subsequent clinical studies.
Mice were randomly divided into different treatment groups. The first immunization day is recorded as Day 0, and the following days were recorded in order.
After the DBA/1 mice were anesthetized with isoflurane, the prepared collagen emulsion was subcutaneously injected into the tail.
On Day 23, 100 μL of LPS solution was administered intraperitoneally.
On day 27, as the mean clinical score reached about 1 point, 60 mice with moderate disease were selected and re-randomized according to body weight and score, with 10 mice per group.
Dexamethasone as a positive control drug was administered at a dose of 0.3 mg/kg, which was common in the CIA model. […] It was administered once a day for a total of 11 days. The volume of the intragastric administration was 10 mL/kg.
Clinical observation: From Day 7 before immunization to Day 23 after immunization, the basic health status and the body weight changes of the DBA/1 mice were observed daily (recorded once a week). After Day 23, the health status, the arthritis incidence and the body weight changes of the mice were observed daily (recorded at least three times a week) until the end of the experiment.
Clinical score: After LPS injection, the arthritis incidence of mice was observed daily. As the clinical symptoms of arthritis occurred, the degree of disease was scored according to the standards of 0-4 (redness, joint deformation) at least three times a week, wherein the highest score for each limb was 4 points, and the highest score for each animal was 16 points. […].
Pathology: On day 38, the mice were euthanized. The hind limbs of the mice were taken, soaked in the 10% formalin solution, decalcified with formic acid solution, embedded in paraffin, sectioned, and stained with hematoxylin-eosin and photographed by microscopy. The degree of joint damage was evaluated from four aspects: inflammatory cell infiltration, formation of […], cartilage damage and bone resorption, and scored according to the standards of 0-4.
The experimental data were expressed as mean value±standard error of mean (Mean±SEM). The body weight and the clinical scores were analyzed by double factor variance (two-way ANOVA). Pathological scores and AUC were tested by T test. p<0.05 was considered as significant difference.

A further assay deals with Recombinant human PDE4B (Homo sapiens (Human), UniProt Q07343). Briefly: Inhibitory activity against PDE 4B in vitro (fluorescence polarization, Transcreener AMP2/GMP2). The note with it: 1 μM cAMP. The class given is biochemical. How it is done:
Inhibitory activity of the compounds against PDE 4B
The enzyme activity was indicated by measuring the AMP/GMP expression and tracing AMP/GMP antibody binding based on fluorescence polarization in the biological assay.
10 mM Tris-HCl (pH 7.5), 5 mM MgCl2, 0.01% Brij 35, 1 mM DTT and 1% DMSO.
Recombinant human PDE4B (Gen accession number: NM_002600; amino acid 305 end) was expressed by baculovirus in Sf9 insect cells using an N-terminal GST tag. MW=78 kDa.
Transcreener® AMP2/GMP2 antibody and AMP2/GMP2 AlexaFluor633 tracer
i) Recombinant human PDE4B and the enzyme substrate (1 μM cAMP) were dissolved in the newly-prepared buffer solution, respectively.
ii) The PDE4B buffer solution defined as above was transferred into the reaction wells.
iii) The compound which was dissolved in 100% DMSO was added to the reaction wells of the PDE4B buffer solution by ultrasonic oscillator (echo 550; nanoliter range) and incubated at room temperature for 10 minutes.
iv) The enzymatic buffer solution was then added to the reaction wells defined as above to initiate the reaction.
v) The reaction was incubated at room temperature for 1 hour.
vi) The reaction was terminated by adding detecting mixture (Transcreener® AMP2/GMP2 antibody and AMP2/GMP2 AlexaFluor633 tracer) and incubated for 90 minutes with slowly mixing. The measurement range of fluorescence polarization is Ex/Em=620/688.
The fluorescence polarization signal was converted into nM according to the AMP/GMP standard curve and the percent enzyme activity relative to DMSO calculated by Excel. GraphPad Prism was used to plot the curves (Drawing Medicine Icon).
On the technique in general: In fluorescence polarisation assays a small probe gives low polarisation when free and higher when bound to something large.

The subject of assay [2] is LPS-induced TNFα from the peripheral monocytes of human. Briefly: Inhibitory effect against LPS-induced TNFα in hPBMC in vitro (ELISA). The class given is cell-based. The settings on record: Monocyte, TNFα in supernatant, 24 hours. The method, then:
Inhibitory activity of the compounds against the LPS-induced TNFα from the peripheral monocytes of human.
1. Whole blood in normal human was collected and EDTA-K2 was used as anticoagulant.
2. PBMC was isolated by Ficoll density gradient centrifugation. The concentration of the cells was adjusted to 2×10^6/mL.
3. 2×10^5 of cells were seed in per well of the 96-well U-bottom plate, followed by the addition of 200 μL/well of LPS with 1 ng/mL and 200 μL/per well of the compound with different concentration: […], 100 pM and 10 pM, with two duplicates of each concentration.
4. The reaction was incubated for 24 hours and the supernatant was collected.
5. ELISA was used to detect the level of TNFα in the supernatant and Graphpad Prism software was used to plot the inhibition curve and calculate the value of IC50.

A value given as a limit tells only on which side of the number the result lay.

Sequence of Recombinant human PDE4B (Q07343 305-736 limits assumed): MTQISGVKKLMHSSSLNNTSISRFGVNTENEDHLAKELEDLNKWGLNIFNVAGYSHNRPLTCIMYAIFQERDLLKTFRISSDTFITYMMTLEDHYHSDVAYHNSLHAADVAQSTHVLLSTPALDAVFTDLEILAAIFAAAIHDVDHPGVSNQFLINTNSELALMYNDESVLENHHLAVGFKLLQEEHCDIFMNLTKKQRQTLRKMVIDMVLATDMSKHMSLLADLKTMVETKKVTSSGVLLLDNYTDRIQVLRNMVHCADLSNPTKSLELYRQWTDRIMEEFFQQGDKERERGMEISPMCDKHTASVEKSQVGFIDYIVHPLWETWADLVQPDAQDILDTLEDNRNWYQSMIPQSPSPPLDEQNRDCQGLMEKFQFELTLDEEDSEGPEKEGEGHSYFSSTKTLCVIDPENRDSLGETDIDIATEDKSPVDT

The molecule `CCOc1cc([C@@H](CS(C)(=O)=O)N2C(=O)c3cccc(NC(C)=O)c3C2=O)ccc1OC` [Apremilast, reference compound] had a mean clinical score in assay [1] (5 mg/kg intragastric once a day, Day 37) of 4.2 points. Moreover, in assay [1] (5 mg/kg, Day 37), the “mean clinical score lower compared with the vehicle control group” value amounted to 3.7 points. In assay [1] (5 mg/kg), the “total pathological score (two hind limbs, HE staining)” value is on record as 13.90±1.89.

Turning to `C[C@@H]1C[C@H]2[C@@H]3CCC4=CC(=O)C=C[C@]4(C)[C@@]3(F)[C@@H](O)C[C@]2(C)[C@@]1(O)C(=O)CO` [Dexamethasone, reference compound], the “percentage inhibition of clinical score AUC relative to the vehicle control group” value in assay [1] (0.3 mg/kg) was 96.4%. In assay [1] (0.3 mg/kg intragastric once a day, Day 30 and maintained to the end of the trial), this molecule registered a clinical score of 0 points.

Take `CCOc1cc([C@@H](CS(C)(=O)=O)n2c(=O)n(C)c3cc(-c4ccccc4F)cnc32)ccc1OC` [WX057]: the IC50 at Recombinant human PDE4B came to 1.25 nM; in assay [2] it was 3.4 nM.

As for `CCOc1cc([C@@H](CS(C)(=O)=O)n2c(=O)n(C3CCC3)c3cc(-c4ccccc4F)cnc32)ccc1OC` [WX062], the 50% inhibitory concentration (IC50) on Recombinant human PDE4B stood at 3.5 nM.

`CCOc1cc([C@@H](CS(C)(=O)=O)n2c(=O)[nH]c3c(C)c(-c4ccccc4F)cnc32)ccc1OC` [WX063]: the “percentage inhibition of clinical score AUC relative to the vehicle control group” value in assay [1] (0.3 mg/kg) is recorded as 43.9%; in assay [1] (1 mg/kg), 39.4%; in assay [1] (3 mg/kg) it was 51.7%. Further, the mean clinical score in assay [1] (0.3 mg/kg intragastric once a day, Day 37) is listed as 3.6 points; in assay [1] (1 mg/kg intragastric once a day, Day 37), 4.3 points; in assay [1] (3 mg/kg intragastric once a day, Day 37) it was 3.5 points. For the same molecule, the “total pathological score (two hind limbs, HE staining)” value is recorded as 14.00±2.43 in assay [1] (1 mg/kg) and 9.20±1.83 in assay [1] (3 mg/kg). In assay [1] (3 mg/kg), the “therapeutic effect (clinical score and arthritis pathology score) versus Apremilast 5 mg/kg (in words)” value is listed as “better than the one of Apremilast”. The “treatment of collagen-induced arthritis and pathological changes of arthritis (in words)” value in assay [1] (doses of 0.3, 1 and 3 mg/kg) is reported as “significant improvement”. In addition, the IC50 at Recombinant human PDE4B was 0.685 nM; in assay [2], 0.56 nM.

For the molecule `CCOc1cc([C@@H](CS(C)(=O)=O)n2c(=O)[nH]c3c(C)c(-c4ccccc4)cnc32)ccc1OC` [WX064], the concentration for half-maximal inhibition (IC50) at Recombinant human PDE4B was 2.23 nM.

Regarding `CCOc1cc([C@@H](CS(C)(=O)=O)n2c(=O)[nH]c3c(-c4ccccc4F)ccnc32)ccc1OC` [WX065], the concentration for half-maximal inhibition (IC50) at Recombinant human PDE4B amounted to 1.87 nM; in assay [2], 8.8 nM.

Take `CCOc1cc([C@@H](CS(C)(=O)=O)n2c(=O)[nH]c3c(-c4ccccc4)ccnc32)ccc1OC` [WX066]: the half-maximal inhibitory concentration (IC50) at Recombinant human PDE4B turned out to be 2.48 nM; in assay [2], 3.8 nM.

Consider `CCOc1cc([C@@H](CS(C)(=O)=O)n2c(=O)[nH]c3c(-c4cnn(C)c4)ccnc32)ccc1OC` [WX067], for which the IC50 on Recombinant human PDE4B is 18.5 nM; in assay [2] it was 6.4 nM.

For the molecule `CCOc1cc([C@@H](CS(C)(=O)=O)n2c(=O)[nH]c3c(Cc4ccccc4F)ccnc32)ccc1OC` [WX068], the IC50 on Recombinant human PDE4B came to 2.24 nM.

Take `CCOc1cc(C(CS(C)(=O)=O)N2C(=O)Cc3cc(Br)cnc32)ccc1OC` (stereo not shown) [WX069]: the IC50 on Recombinant human PDE4B is 47.8 nM.

With `CCOc1cc(C(CS(C)(=O)=O)n2c(=O)oc3cc(Br)cnc32)ccc1OC` (stereo not shown) [WX070], at Recombinant human PDE4B, the IC50 was 73.8 nM.

For the molecule `CCOc1cc(C(CS(C)(=O)=O)n2c(=O)oc3cc(-c4ccccc4F)cnc32)ccc1OC` (stereo not shown) [WX071], the IC50 at Recombinant human PDE4B turned out to be 0.74 nM.

With `CCOc1cc(C(CS(C)(=O)=O)n2c(=O)[nH]c3cc(-c4ccccc4F)cnc32)ccc1OC(F)F` (stereo not shown) [WX073], the IC50 on Recombinant human PDE4B was under 0.5 nM.

As to `CCOc1cc(C(CS(C)(=O)=O)n2c(=O)[nH]c3cc(-c4ccccc4)cnc32)ccc1OC(F)F` (stereo not shown) [WX074], the IC50 on Recombinant human PDE4B amounted to 1.03 nM.

Turning to `CCOc1cc(C(CS(C)(=O)=O)n2c(=O)[nH]c3c(C)c(C)cnc32)ccc1OC(F)F` (stereo not shown) [WX075], the 50% inhibitory concentration (IC50) at Recombinant human PDE4B stood at 5.39 nM.

With `CCOc1cc(C(CS(C)(=O)=O)n2c(=O)[nH]c3c(C)c(-c4ccccc4F)cnc32)ccc1OC(F)F` (stereo not shown) [WX076], the 50% inhibitory concentration (IC50) at Recombinant human PDE4B is under 0.5 nM.

Regarding `CCOc1cc(C(CS(C)(=O)=O)n2c(=O)[nH]c3c(C)c(-c4ccccc4)cnc32)ccc1OC(F)F` (stereo not shown) [WX077], the IC50 at Recombinant human PDE4B came to 1.01 nM.

Turning to `CCOc1cc(C(CS(C)(=O)=O)n2c(=O)[nH]c3c(-c4ccccc4)ccnc32)ccc1OC(F)F` (stereo not shown) [WX078], on Recombinant human PDE4B, the IC50 is under 0.5 nM.
